{"source": "patent US20210213104A1", "about": "“GLUCAGON AND GLP-1 CO-AGONISTS FOR THE TREATMENT OF CHRONIC KIDNEY DISEASE AND DIABETIC KIDNEY DISEASE IN TYPE 2 DIABETES” (MEDIMMUNE LIMITED, priority 2020, published 2021)", "tested_on": "subjects with T2DM and renal impairment", "assay": "Phase 2a: mixed-meal tolerance test (MMTT) plasma glucose AUC", "assay_type": "in vivo, human", "details": "for MMTT plasma glucose AUC4 h, LS Mean % Change / MMTT plasma glucose AUC4 h, Difference in LS Mean % Change (vs Placebo) / Percent Change from Baseline in MMTT plasma glucose AUC4 h, Mean / Percent Change from Baseline in MMTT plasma glucose AUC4 h, Median: Day −5 to Day 32; for MMTT plasma glucose AUC4 h, LS Mean % Change: ANCOVA; for MMTT plasma glucose AUC4 h, LS Mean % Change / MMTT plasma glucose AUC4 h, Difference in LS Mean % Change (vs Placebo) / Percent Change from Baseline in MMTT plasma glucose AUC4 h, Mean / Percent Change from Baseline in MMTT plasma glucose AUC4 h, Median / MMTT plasma glucose AUC4 h, Day 32, Mean / MMTT plasma glucose AUC4 h, Day 32, Median: ITT", "description": "Cotadutide was titrated from 50 μg up to 300 μg and administered once daily by subcutaneous (SC) injection over 32 days.\nCotadutide was administered at 50 μg once daily for 4 days, followed by 100 μg daily for 7 days, 200 μg daily for 7 days, and 300 μg daily for 14 days (n=20). Placebo was administered one daily for 32 days (n=20). Cotadutide and placebo were administered in the morning. Dosing commenced following predose baseline vital signs, blood tests (including HbA1c), an electrocardiogram (ECG), body weight measurement, and bioimpedance spectroscopy (BIS). Subjects then returned for daily dosing or remained overnight locally until Day 5, and thereafter, had visits at weekly intervals until a maintenance dose of 300 μg was established. Thus, Cotadutide or placebo was administered at the study site by study personal for the first four doses and on site on Days 5, 12, 19, and 32. At all other times, subjects preformed dosing at home.\nThe effect of Cotadutide titrated up to a dose level of 300 μg on glucose control vs placebo after 32 days of treatment was assessed by a standardized mixed-meal tolerance test (MMTT) to determine the percentage change in glucose from area under the concentration-time curve (AUC) from baseline (Day −5) to the end of 32 days of treatment.\nFollowing a minimum 8-hour fast, the subject underwent an MMTT, which involved the consumption of a standardized liquid meal (Ensure Plus, a nutritional supplement containing the components of fat, carbohydrate, and protein, which make up a standard MMTT) within 15 minutes, and timed serial blood samples were obtained for measurement of glucose through 240 minutes after consumption of the standardized meal (with no additional food intake during this time). Blood was drawn within 15 minutes before consuming the standardized liquid meal (i.e., “0 minutes”), and at 15, 30, 45, 60, 90, 120, 180, and 240 minutes (±5 minutes) after consumption. Blood sampling occurred as close as possible to the specified times for the MMTT. At Day 32, the serial blood sampling begins 2.5 hours after Cotadutide or placebo administration.\nSubjects who used a quick acting or pre-mixed form of insulin with breakfast received their usual/current dose of breakfast-time insulin with the Ensure Plus milkshake i.e., dose reduction of insulin was not required. Subjects who carbohydrate counted or varied insulin dose in relation to meal type were advised that the Ensure Plus milkshake contained approximately 44.4 g of carbohydrate, 10.8 g of fat, and 13.8 g of protein and to adjust their insulin dose on this basis. The timing of insulin administration in relation to the Ensure Plus milkshake consumption was in accordance with the usual regimen used by the subject, e.g., if a subject injected insulin 30 minutes before breakfast, they were to inject insulin 30 minutes before the Ensure Plus milkshake.\nThe investigators also considered whether a dose reduction in insulin and/or sulfonylurea or glitinide was required for this fasting assessment on Day 32.\nThe change in the mixed-meal tolerance test (MMTT) plasma glucose AUC from the baseline (Day −5) to end of 32 days of treatment was evaluated in the ITT population using an analysis of covariance (ANCOVA) model. The model included fixed effect of treatment and baseline AUC as a covariate. The difference of the percent change in glucose AUC between the two treatment arms was compared with a two-sided significance level of 0.10.", "note": "“And” between values parts separate entries of the source, which are not always exact repeats. Identical values can stand only once."}
{"smiles": "CCCCCCCCCCCCCCCC(=O)N[C@@H](CCC(=O)NCCCC[C@H](NC(=O)[C@H](CC(=O)O)NC(=O)[C@H](CO)NC(=O)[C@@H](NC(=O)[C@H](Cc1ccccc1)NC(=O)[C@@H](NC(=O)CNC(=O)[C@H](CCC(N)=O)NC(=O)[C@H](CO)NC(=O)[C@@H](N)Cc1c[nH]cn1)[C@@H](C)O)[C@@H](C)O)C(=O)N[C@@H](CO)C(=O)N[C@@H](CCC(=O)O)C(=O)N[C@@H](Cc1ccc(O)cc1)C(=O)N[C@@H](CC(C)C)C(=O)N[C@@H](CC(=O)O)C(=O)N[C@@H](CO)C(=O)N[C@@H](CCC(=O)O)C(=O)N[C@@H](CCCNC(=N)N)C(=O)N[C@@H](C)C(=O)N[C@@H](CCCNC(=N)N)C(=O)N[C@@H](CC(=O)O)C(=O)N[C@@H](Cc1ccccc1)C(=O)N[C@H](C(=O)N[C@@H](C)C(=O)N[C@@H](Cc1c[nH]c2ccccc12)C(=O)N[C@@H](CC(C)C)C(=O)N[C@@H](CCC(=O)O)C(=O)N[C@@H](C)C(=O)NCC(=O)NCC(=O)O)C(C)C)C(=O)O", "note": "[Cotadutide]", "values": [{"measurement": "MMTT plasma glucose AUC4 h, LS Mean % Change", "setting": "Insulin Dose < 20 U/day", "result": "−27.16", "unit": "%"}, {"measurement": "MMTT plasma glucose AUC4 h, LS Mean % Change", "setting": "Insulin Dose ≥ 20 U/day", "result": "−25.313", "unit": "%"}, {"measurement": "MMTT plasma glucose AUC4 h, LS Mean % Change", "setting": "Total", "result": "−26.71% and −26.7%"}, {"measurement": "MMTT plasma glucose AUC4 h, LS Mean % Change", "setting": "Total, listed as MEDI0382", "result": "−26.71", "unit": "%"}, {"measurement": "MMTT plasma glucose AUC4 h, LS Mean % Change", "setting": "eGFR 30-44 mL/min/1.73 m^2", "result": "−27.59", "unit": "%"}, {"measurement": "MMTT plasma glucose AUC4 h, LS Mean % Change", "setting": "eGFR 45-59 mL/min/1.73 m^2", "result": "−27.95", "unit": "%"}, {"measurement": "MMTT plasma glucose AUC4 h, Difference in LS Mean % Change (vs Placebo)", "setting": "Insulin Dose < 20 U/day", "result": "−36.37", "unit": "%"}, {"measurement": "Percent Change from Baseline in MMTT plasma glucose AUC4 h, Mean", "setting": "Insulin Dose < 20 U/day", "result": "−31.99", "unit": "%"}, {"measurement": "Percent Change from Baseline in MMTT plasma glucose AUC4 h, Median", "setting": "Insulin Dose < 20 U/day", "result": "−36.99", "unit": "%"}, {"measurement": "MMTT plasma glucose AUC4 h, Difference in LS Mean % Change (vs Placebo)", "setting": "Insulin Dose ≥ 20 U/day", "result": "−25.751", "unit": "%"}, {"measurement": "Percent Change from Baseline in MMTT plasma glucose AUC4 h, Mean", "setting": "Insulin Dose ≥ 20 U/day", "result": "−25.00", "unit": "%"}, {"measurement": "Percent Change from Baseline in MMTT plasma glucose AUC4 h, Median", "setting": "Insulin Dose ≥ 20 U/day", "result": "−22.850", "unit": "%"}, {"measurement": "MMTT plasma glucose AUC4 h, Difference in LS Mean % Change (vs Placebo)", "setting": "Total", "result": "−30.38", "unit": "%"}, {"measurement": "Percent Change from Baseline in MMTT plasma glucose AUC4 h, Mean", "setting": "Total", "result": "−27.719", "unit": "%"}, {"measurement": "Percent Change from Baseline in MMTT plasma glucose AUC4 h, Median", "setting": "Total", "result": "−27.45", "unit": "%"}, {"measurement": "MMTT plasma glucose AUC4 h, Difference in LS Mean % Change (vs Placebo)", "setting": "eGFR 30-44 mL/min/1.73 m^2", "result": "−31.64", "unit": "%"}, {"measurement": "Percent Change from Baseline in MMTT plasma glucose AUC4 h, Mean", "setting": "eGFR 30-44 mL/min/1.73 m^2", "result": "−24.41", "unit": "%"}, {"measurement": "Percent Change from Baseline in MMTT plasma glucose AUC4 h, Median", "setting": "eGFR 30-44 mL/min/1.73 m^2", "result": "−22.90", "unit": "%"}, {"measurement": "MMTT plasma glucose AUC4 h, Difference in LS Mean % Change (vs Placebo)", "setting": "eGFR 45-59 mL/min/1.73 m^2", "result": "−32.87", "unit": "%"}, {"measurement": "Percent Change from Baseline in MMTT plasma glucose AUC4 h, Mean", "setting": "eGFR 45-59 mL/min/1.73 m^2", "result": "−29.83", "unit": "%"}, {"measurement": "Percent Change from Baseline in MMTT plasma glucose AUC4 h, Median", "setting": "eGFR 45-59 mL/min/1.73 m^2", "result": "−37.00", "unit": "%"}, {"measurement": "MMTT plasma glucose AUC4 h, Day 32, Mean", "setting": "Insulin Dose < 20 U/day", "result": 594.85, "unit": "mg·h/dL"}, {"measurement": "MMTT plasma glucose AUC4 h, Day 32, Median", "setting": "Insulin Dose < 20 U/day", "result": 599.41, "unit": "mg·h/dL"}, {"measurement": "MMTT plasma glucose AUC4 h, Day 32, Mean", "setting": "Insulin Dose ≥ 20 U/day", "result": 679.23, "unit": "mg·h/dL"}, {"measurement": "MMTT plasma glucose AUC4 h, Day 32, Median", "setting": "Insulin Dose ≥ 20 U/day", "result": 700.08, "unit": "mg·h/dL"}, {"measurement": "MMTT plasma glucose AUC4 h, Day 32, Mean", "setting": "Total", "result": 646.42, "unit": "mg·h/dL"}, {"measurement": "MMTT plasma glucose AUC4 h, Day 32, Median", "setting": "Total", "result": 619.33, "unit": "mg·h/dL"}, {"measurement": "MMTT plasma glucose AUC4 h, Day 32, Mean", "setting": "eGFR 30-44 mL/min/1.73 m^2", "result": 618.21, "unit": "mg·h/dL"}, {"measurement": "MMTT plasma glucose AUC4 h, Day 32, Median", "setting": "eGFR 30-44 mL/min/1.73 m^2", "result": 700.10, "unit": "mg·h/dL"}, {"measurement": "MMTT plasma glucose AUC4 h, Day 32, Mean", "setting": "eGFR 45-59 mL/min/1.73 m^2", "result": 664.37, "unit": "mg·h/dL"}, {"measurement": "MMTT plasma glucose AUC4 h, Day 32, Median", "setting": "eGFR 45-59 mL/min/1.73 m^2", "result": 605.70, "unit": "mg·h/dL"}, {"measurement": "postprandial plasma glucose concentrations on Day 32", "setting": "pre-standardized liquid meal to 180 minutes post meal", "result": "lower than placebo"}]}
